{"source": "patent US9050376B2", "about": "(priority 2007, dated 2015)", "key": {"[1]": {"parameters": "species or system C57BL/6 mice", "conditions": "mouse, in vivo, iv"}, "[2]": {"target": "T1, TLR7 (Homo sapiens, UniProt Q9NYK1)", "T1 construct": "expressed in transfected cells", "T1 sequence (Q9NYK1 27-1049)": "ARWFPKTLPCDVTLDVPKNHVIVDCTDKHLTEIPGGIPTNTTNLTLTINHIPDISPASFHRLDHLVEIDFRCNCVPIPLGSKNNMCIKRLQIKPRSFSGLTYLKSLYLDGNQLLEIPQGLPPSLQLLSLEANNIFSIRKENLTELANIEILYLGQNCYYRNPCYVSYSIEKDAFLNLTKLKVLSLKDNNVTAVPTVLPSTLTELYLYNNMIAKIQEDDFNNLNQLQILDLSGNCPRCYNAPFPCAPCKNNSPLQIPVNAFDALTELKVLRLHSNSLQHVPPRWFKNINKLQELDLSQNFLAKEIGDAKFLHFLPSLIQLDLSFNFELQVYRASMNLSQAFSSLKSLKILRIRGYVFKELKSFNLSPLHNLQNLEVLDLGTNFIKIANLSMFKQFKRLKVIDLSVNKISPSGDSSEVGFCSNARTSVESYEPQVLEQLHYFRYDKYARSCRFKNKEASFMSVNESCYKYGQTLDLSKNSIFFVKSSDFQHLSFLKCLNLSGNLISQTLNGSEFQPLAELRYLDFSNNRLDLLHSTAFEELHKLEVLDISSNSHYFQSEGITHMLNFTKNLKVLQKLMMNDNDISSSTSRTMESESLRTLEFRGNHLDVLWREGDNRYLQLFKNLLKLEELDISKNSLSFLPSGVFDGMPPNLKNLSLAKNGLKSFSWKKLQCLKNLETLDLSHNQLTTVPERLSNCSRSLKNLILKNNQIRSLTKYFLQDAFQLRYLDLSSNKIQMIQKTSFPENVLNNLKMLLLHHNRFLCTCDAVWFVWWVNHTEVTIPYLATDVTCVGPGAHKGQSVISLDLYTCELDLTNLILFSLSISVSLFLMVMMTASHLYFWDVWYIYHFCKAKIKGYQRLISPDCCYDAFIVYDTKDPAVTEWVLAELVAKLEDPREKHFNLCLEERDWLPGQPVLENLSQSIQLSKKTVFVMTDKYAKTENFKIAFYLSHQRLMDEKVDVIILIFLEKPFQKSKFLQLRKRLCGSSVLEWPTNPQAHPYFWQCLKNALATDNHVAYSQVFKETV", "assay": "TLR transformants, TLR7 agonist specificity and potency", "type": "cell-based"}, "[3]": {"tested_on": "B. anthracis", "parameters": "species or system A/J mice", "conditions": "mouse, in vivo"}, "[4]": {"tested_on": "bone-marrow-derived macrophages (BMDM)", "type": "cell-based, mouse", "conditions": "24 hours incubation"}, "[5]": {"parameters": "species or system C57BL/6 mice", "conditions": "mouse, in vivo"}, "[6]": {"tested_on": "anthrax infection", "conditions": "in vivo"}, "[7]": {"tested_on": "B16 melanoma tumor cells expressing the cOVA transgene", "parameters": "species or system C57/B1 mice", "conditions": "mouse, in vivo"}}, "note": "“Also recorded” adds a separate entry of the source."}
{"compound": "COCCOc1nc(N)c2nc(O)n(Cc3ccc(C=O)cc3)c2n1", "note": "[UC-1V150, 4-[6-amino-8-hydroxy-2-(2-methoxyethoxy)purin-9-ylmethyl]benzaldehyde]", "values": [{"measurement": "time of peak serum cytokine levels", "setting": "[1]", "value": "about 2 hours"}, {"measurement": "TLR specificity", "setting": "[2]", "value": "specific TLR7 agonist"}, {"measurement": "effect on survival / protection", "setting": "[3]", "value": "no significant difference; also recorded: failed to protect"}, {"measurement": "cytokine release / activation of BMDM", "setting": "[4]", "value": "stimulated cytokine release; also recorded: active at nanomolar concentrations"}, {"measurement": "cytokine production in the BALF", "setting": "[5]", "value": "induced selective cytokine production"}]}
{"compound": "O=C(O)c1cn(C2CC2)c2cc(N3CCNCC3)c(F)cc2c1=O", "note": "[ciprofloxacin]", "values": [{"measurement": "survival", "setting": "[6]", "value": "15-25%"}]}
{"compound": "chicken ovalbumin: antigen alone, comparator", "values": [{"measurement": "median survival", "setting": "[7]", "value": 22, "unit": "days"}]}
